Source: patent US8178574B2, “Tosylate salt of trans-N-isobutyl-3-fluoro-3-[3-fluoro-4-(pyrrolidin-1-yl-methyl)-phenyl] cyclobut anecarboxamide” (Pfizer Inc., priority 2007, dated 2012)
Where a name gives a salt, the structure may show the parent alone.

Assays:
[1] = Aqueous solubility of the crystalline compound (RP-HPLC after temperature cycling); type: physicochemical; conditions: for solubility thermodynamic at 25 h: aqueous buffer
Procedure: The following information was determined in regard of aqueous solubility. […] These values represent the solubility of the crystalline compound determined via RP-HPLC analysis after subjecting the drug media mixture to a temperature cycling program (40° C. for 8 hours, 15° C. for 5 hours, and 25° C. for 12 hours).

[2] = Hygroscopicity by dynamic vapor sorption (VTI, kinetic experiment); type: physicochemical
Procedure: Hygroscopicity was assessed using a dynamic vapor sorption technique in which an accurately weighed sample is subjected to progressively changing water vapor pressure while simultaneously recording the weight change. The experiment is conducted isothermally at 25° C.
During the initial drying cycle (25° C., 1-3% RH), approximately 0.8% weight loss was observed, which is consistent with an anhydrous form. The sample gained 0.5% of its original weight when exposed to relative humidities from 0% to 90% at 25° C. (CQG≦2% wt. gain at 90% RH). […] FIG. 5 (VTI Moisture Sorption Data) reports results achieved in a step isotherm at a heating rate of 1° C./minute.

solubility ([1]; 0.1M phosphate buffered saline with 0.5 weight percent sodium taurocholate/phosphatidyl choline salts, final pH 7.4): 7.0 mgA/mL
solubility thermodynamic at 25 h ([1]; 0.1M phosphate buffered saline, final pH 6.3, temperature cycling 40/15/25° C.): 5000 µg/mL
solubility thermodynamic at 25 h ([1]; unbuffered water, final pH 4.7): 8400 µg/mL
weight loss during initial drying cycle ([2]; 25° C., 1-3% RH): approximately 0.8%
hygroscopicity (in words) ([2]; kinetic experiment (VTI), 25° C.): very slightly hygroscopic
weight gain (of original weight) ([2]; relative humidities from 0% to 90% at 25° C.): 0.5%
SMILES: CC(C)CNC(=O)[C@H]1C[C@@](F)(c2ccc(CN3CCCC3)c(F)c2)C1 [tosylate salt of the invention]
